Source: patent publication US11306080B2, “Crystalline form of a BACE inhibitor, compositions, and use” (Merck Sharp & Dohme Corp., priority 2017, dated 2022)
“Also recorded” adds a separate entry of the source.

Assays:
Assay type in all cases: physicochemical
[1] = 4 week open dish accelerated chemical stability of 12 mg tablets, analyzed using HPLC; details: 40° C./75% RH
Protocol: To assess the chemical stability of Crystalline Form II of verubecestat in the tablet formulation, a 4 week open dish accelerated stability experiment was performed at a controlled temperature and humidity. Identical measurements were made to Crystalline Form I of verubecestat, which Form I is described in WO2016025364 for comparison. […] At the end of two weeks and of four weeks, tablets were analyzed using HPLC. The data obtained are reported in the following table, where “Hyd1” and “Hyd2” indicate observed degradation product: […]

[2] = Thermodynamic stability by competitive slurry experiments in various solvent systems, resultant form by PXRD; details: slurried in various solvents for an extended period of time at a controlled temperature
Protocol: The thermodynamic stability of Crystalline Form II of Verubecestat was assessed using competitive slurry experiments in various solvent systems. Crystalline Form I of Verubecestat, obtained using the procedures set out in WO2016025364, and Crystalline Form II of verubecestat material obtained as described above were slurried in various solvents for an extended period of time and at a controlled temperature. At the end of the experiments, the solvent was removed and the remaining crystalline material were evaluated using Powder X-ray Diffraction (PXRD) to confirm the resultant form.

[3] = BCS (Biopharmaceutics Classification System) designation; details: listed as Crystalline Form II of Verubecestat

Row | SMILES | Assay (% LC) ([1]; 2 weeks) | Assay (% LC) ([1]; 4 weeks) | Assay (% LC) ([1]; time point 0) | Degradation Product (%) Hyd1 ([1]; time point 0) | Degradation Product (%) Hyd2 ([1]; time point 0) | Degradation Product (%) Total ([1]; time point 0) | Form remaining after competitive slurry of Form I and Form II (thermodynamic stability) [2] | BCS class [3]
1 | CN1C(=N)N[C@](C)(c2cc(NC(=O)c3ccc(F)cn3)ccc2F)CS1(=O)=O [Crystalline Form I, verubecestat, reference compound] | 98.5 % LC | 97.4 % LC | 98.5 % LC | — (“—”means not more than 0.05%) | — (“—”means not more than 0.05%) | — (“—”means not more than 0.05%) | – | –
2 | CN1C(N)=N[C@](C)(c2cc(NC(=O)c3ccc(F)cn3)ccc2F)CS1(=O)=O [Crystalline Form II, N-[3-[(5R)-3-amino-5,6-dihydro-2,5-dimethyl-1,1-dioxido-2H-1,2,4-thiadiazin-5-yl]-4-fluorophenyl]-5-fluoro-2-pyridinecarboxamide] | 104.6 % LC | 102.4 % LC | 104.3 % LC | — (“—”means not more than 0.05%) | — (“—”means not more than 0.05%) | — (“—”means not more than 0.05%) | the only form remaining | Class I; also recorded: Class 1
